According to patent US6623931B2, “Diagnostic assay for antibiotic tolerance” (priority 2001, dated 2003):

Assays:
Type in all cases: cell-based
Streptococcus pneumoniae [1] = assay: lysis after exposure to 10×MIC vancomycin (optical density of the culture)
Method: Prevalence of vancomycin tolerance in clinical isolates. To determine the prevalence of vancomycin tolerance in Streptococcus pneumoniae in a population of healthy children, 215 nasopharygeal isolates from Vanderbilt University Hospital were screened for lysis after exposure to 10×MIC (minimum inhibitory concentration) vancomycin (5 ug/ml).

Streptococcus pneumoniae [2] = assay: viability assay after exposure to vancomycin
Description: To confirm tolerance, the 27 non-lytic strains were subjected to viability assays. […] This is within ±2 standard deviations (SD) of the killing rate for the tolerant Lyt4-4 strain.

Streptococcus pneumoniae [3] = assay: MIC of tolerant isolates; details: tolerant clinical isolates
Method: (§1) Characteristics of Tolerant Isolates. The MIC's of the tolerant isolates ranged from 0.1 ug/ml to 0.3 ug/ml vancomycin and all were resistant to penicillin as evidenced by an oxacillin disc sensitivity test. Tolerance was not correlated with serotype. Frequently, tolerant strains were isolated days to weeks after non-tolerant strains in the same child indicating tolerance could arise during carriage in the nasopharynx. Clonal relatedness between the non-tolerant and tolerant strains isolated sequentially from the same child was assessed by pulse-field gel electrophoresis (PFGE) patterns of SmaI digested genomic DNA. […] Thus, tolerant and non-tolerant strains could be paired for comparison. PFGE indicated a possible serotype switch in one child (Child C), while another child (Child E) was colonized by two separate, yet closely related, tolerant strains.

Streptococcus pneumoniae [4] = assay: reversal of tolerance by exogenous synthetic Pep27 added with vancomycin; details: tolerant clinical strains, vancomycin 10×MIC in the absence of peptide
Method: Pep27 Transport by Vex. In laboratory strains, tolerance has been created by loss of function mutations in the death signal Pep27 or its transporter Vex, the loci contiguous with vncS/R. Tolerance in these cases was attributed to lack of Pep27 or lack of Pep27 export into the supernatant. To assess Pep27 in the supernatant, immunoprecipitations were performed using Pep27 antibody. […] Therefore, extracellular transport of the peptide may be defective in tolerant strains leading to the loss of signal for death through VncS. If so, tolerance should be reversed through the addition of exogenous Pep27 to the culture. To test this, tolerant clinical strains were treated with vancomycin at 10×MIC as before but 0.5 mM synthetic Pep27 was added in conjunction with the antibiotic.

Streptococcus pneumoniae [5] = assay: lysis by 1% deoxycholate (activation of functional LytA); details: all tolerant isolates
Description: Identification of the Mechanism Contributing to Tolerance. […] Furthermore, all tolerant isolates were lysed by 1% deoxycholate—a detergent that specifically activates functional LytA causing lysis of the bacteria. This eliminated mechanisms of tolerance in the clinical strains that arise from lack of enzyme or loss of amidase activity. Attention thus focused on the only reported mechanism where normal amidase is present: mutation of the vncR/S locus, encoding a two-component sensor regulator system. Western blot analysis confirmed the presence of VncS and VncR in the tolerant clinical isolates.

Streptococcus pneumoniae [6] = assay: oxacillin disc sensitivity test; details: tolerant clinical isolates
Method: as §1

CN[C@H](CC(C)C)C(=O)N[C@H]1C(=O)N[C@@H](CC(N)=O)C(=O)N[C@H]2C(=O)N[C@H]3C(=O)N[C@H](C(=O)N[C@H](C(=O)O)c4cc(O)cc(O)c4-c4cc3ccc4O)[C@H](O)c3ccc(c(Cl)c3)Oc3cc2cc(c3O[C@@H]2O[C@H](CO)[C@@H](O)[C@H](O)[C@H]2O[C@H]2C[C@](C)(N)[C@H](O)[C@H](C)O2)Oc2ccc(cc2Cl)[C@H]1O [vancomycin]
optical density of the culture (Streptococcus pneumoniae [1]; 27 of 215 nasopharyngeal isolates that failed to lyse, after 4 hours, 10×MIC vancomycin (5 ug/ml)): above 0.15 | OD620nm (Streptococcus pneumoniae [1]; control R6 strain, after 2 hours @ 10×MIC of vancomycin): 0.02 | log kill (Streptococcus pneumoniae [2]; R6 strain, after 4 hours of exposure to vancomycin): 5 log | log killing (Streptococcus pneumoniae [2]; eight tolerant clinical isolates, after 4 hours of exposure to vancomycin): < 3 log | viability after antibiotic exposure (Streptococcus pneumoniae [2]; remaining 19 non-lytic isolates): dead after antibiotic exposure | MIC (Streptococcus pneumoniae [3]): 0.1 to 0.3 µg/mL | viability diminished (Streptococcus pneumoniae [4]): 2 logs

deoxycholate
lysis of the bacteria (Streptococcus pneumoniae [5]): lysed

penicillin
penicillin susceptibility (Streptococcus pneumoniae [6]): resistant
